# Calls of active or inactive are those of the source. The calls are words filed in the database; no cut-off is given here.
# What was measured:
# [1] = Selectivity index, ratio of CC50 for cytotoxicity against mouse NCTC clone 929 cells to MIC for antibacterial activity against Klebsiella pneumoniae ATCC 14581; type: toxicity, cell-based; settings: read-out: Selectivity Index
# [2] = Cytotoxicity against mouse NCTC clone 929 cells assessed as cell survival rate at 6.25 ug/ml by CCK-8 assay relative to control; type: toxicity, cell-based; settings: NCTC clone 929 (L929) cells, at 6.25 µg/mL, read-out: Activity
# Staphylococcus aureus [3] = assay: Antibacterial activity against methicillin resistant Staphylococcus aureus N315 by microbroth dilution assay; type: functional
# [4] = Cytotoxicity against mouse NCTC clone 929 cells assessed as cell survival rate at 25 ug/ml by CCK-8 assay relative to control; type: toxicity, cell-based; settings: NCTC clone 929 (L929) cells, at 25 µg/mL, read-out: Activity
# [5] = Cytotoxicity against HEK293 cells assessed as cell survival rate at 3.125 ug/ml by CCK-8 assay relative to control; type: toxicity, cell-based; settings: human, at 3.125 µg/mL, read-out: Activity
# Klebsiella pneumoniae [6] = assay: Antibacterial activity against Klebsiella pneumoniae ATCC 10031 assessed as log reduction in bacterial load at 8 times MIC measured after 2 hrs by time kill assay; type: functional
# Klebsiella pneumoniae [7] = assay: Antibacterial activity against Klebsiella pneumoniae ATCC 10031 assessed as reduction in bacterial load at 4 times MIC measured after 2 hrs by time kill assay relative to control; type: functional; set-up: scale not given: the % may be the effect or the level left
# Klebsiella pneumoniae [8] = assay: Antibacterial activity against Klebsiella pneumoniae ATCC 10031 assessed as reduction in bacterial load at 8 times MIC measured after 2 hrs by time kill assay relative to control; type: functional; set-up: scale not given: the % may be the effect or the level left
# [9] = Selectivity index, ratio of CC50 for cytotoxicity against mouse NCTC clone 929 cells to MIC for antibacterial activity against Staphylococcus aureus ATCC 29213; type: toxicity, cell-based; settings: read-out: Selectivity Index
# [10] = Selectivity index, ratio of CC50 for cytotoxicity against mouse NCTC clone 929 cells to MIC for antibacterial activity against Pseudomonas aeruginosa ATCC 9027; type: toxicity, cell-based; settings: read-out: Selectivity Index
# [11] = Selectivity index, ratio of CC50 for cytotoxicity against HEK293 cells to MIC for antibacterial activity against methicillin resistant Staphylococcus aureus NCTC 10442; type: toxicity, cell-based; settings: human, read-out: Selectivity Index
# Staphylococcus aureus [12] = assay: Antibacterial activity against Staphylococcus aureus ATCC 29213 in presence of 19 umol/L Zn2+ by broth microdilution method; type: functional
# Staphylococcus aureus [13] = assay: Antibacterial activity against Staphylococcus aureus ATCC 29213 in presence of 20 umol/L Fe3+ by broth microdilution method; type: functional
# Staphylococcus aureus [14] = assay: Antibacterial activity against methicillin resistant Staphylococcus aureus N315 in presence of 1 mmol/L Mg2+ by broth microdilution method; type: functional
# Staphylococcus aureus [15] = assay: Antibacterial activity against methicillin resistant Staphylococcus aureus NCTC 10442 in presence of 140 mmol/L Na+ by broth microdilution method; type: functional
# Staphylococcus aureus [16] = assay: Antibacterial activity against methicillin resistant Staphylococcus aureus NCTC 10442 in presence of 2.5 mmol/L Ca2+ by broth microdilution method; type: functional
# Escherichia coli [17] = assay: Antibacterial activity against Escherichia coli ATCC 25922 in presence of 140 mmol/L Na+ by broth microdilution method; type: functional
# Escherichia coli [18] = assay: Antibacterial activity against Escherichia coli ATCC 25922 in presence of 2.5 mmol/L Ca2+ by broth microdilution method; type: functional
# Escherichia coli [19] = assay: Antibacterial activity against Escherichia coli ATCC 25922 in presence of 19 umol/L Zn2+ by broth microdilution method; type: functional
# Escherichia coli [20] = assay: Antibacterial activity against Escherichia coli ATCC 25922 in presence of 20 umol/L Fe3+ by broth microdilution method; type: functional
# Klebsiella pneumoniae [21] = assay: Antibacterial activity against Klebsiella pneumoniae ATCC 10031 in presence of 140 mmol/L Na+ by broth microdilution method; type: functional
# Klebsiella pneumoniae [22] = assay: Antibacterial activity against Klebsiella pneumoniae ATCC 10031 in presence of 19 umol/L Fe2+ by broth microdilution method; type: functional
# Klebsiella pneumoniae [23] = assay: Antibacterial activity against Klebsiella pneumoniae ATCC 14581 in presence of 140 mmol/L Na+ by broth microdilution method; type: functional
# Klebsiella pneumoniae [24] = assay: Antibacterial activity against Klebsiella pneumoniae ATCC 14581 in presence of 4.5 mmol/L K+ by broth microdilution method; type: functional
# Klebsiella pneumoniae [25] = assay: Antibacterial activity against Klebsiella pneumoniae ATCC 14581 in presence of 1 mmol/L Mg2+ by broth microdilution method; type: functional
# Klebsiella pneumoniae [26] = assay: Antibacterial activity against Klebsiella pneumoniae ATCC 14581 in presence of 19 umol/L Zn2+ by broth microdilution method; type: functional
# Klebsiella pneumoniae [27] = assay: Antibacterial activity against Klebsiella pneumoniae ATCC 14581 in presence of 20 umol/L Fe3+ by broth microdilution method; type: functional
# Pseudomonas aeruginosa [28] = assay: Antibacterial activity against Pseudomonas aeruginosa ATCC 9027 in presence of 4.50 mmol/L K+ by broth microdilution method; type: functional
# Pseudomonas aeruginosa [29] = assay: Antibacterial activity against Pseudomonas aeruginosa ATCC 9027 in presence of 19 umol/L Zn2+ by broth microdilution method; type: functional
# Pseudomonas aeruginosa [30] = assay: Antibacterial activity against Pseudomonas aeruginosa ATCC 9027 in presence of 20 umol/L Fe3+ by broth microdilution method; type: functional
# Staphylococcus aureus [31] = assay: Antibacterial activity against Staphylococcus aureus ATCC 29213 assessed as cell membrane disruption by SYTOX Green assay; type: functional, organism-based
# Staphylococcus aureus [32] = assay: Antibacterial activity against Staphylococcus aureus ATCC 29213 assessed as loss in cell viability at 8 times MIC incubated for 4 hrs by LIVE/DEAD BacLight bacterial viability assay; type: functional, organism-based; settings: Cell membrane
# Klebsiella pneumoniae [33] = assay: Inhibition of biofilm formation in Klebsiella pneumoniae ATCC 10031 by crystal violet staining assay; type: functional, organism-based; settings: dose 0.78-25 µg/ml
# Klebsiella pneumoniae [34] = assay: Inhibition of biofilm formation in Klebsiella pneumoniae ATCC 10031 at 0.78 ug/ml by crystal violet staining assay relative to control; type: functional
# Klebsiella pneumoniae [35] = assay: Inhibition of biofilm formation in Klebsiella pneumoniae ATCC 10031 at 3.125 ug/ml by crystal violet staining assay relative to control; type: functional
# Klebsiella pneumoniae [36] = assay: Inhibition of biofilm formation in Klebsiella pneumoniae ATCC 10031 at 25 ug/ml by crystal violet staining assay relative to control; type: functional
# Staphylococcus aureus [37] = assay: Antibiofilm activity against 24 hrs preformed biofilm in Staphylococcus aureus ATCC 29213 assessed as reduction in biofilm viability at 0.78 ug/ml relative to control; type: functional; settings: dose 0.78 µg/ml
# Staphylococcus aureus [38] = assay: Antibiofilm activity against 24 hrs preformed biofilm in Staphylococcus aureus ATCC 29213 assessed as reduction in biofilm viability at 3.125 ug/ml relative to control; type: functional; settings: dose 3.125 µg/ml
# Staphylococcus aureus [39] = assay: Antibiofilm activity against 24 hrs preformed biofilm in Staphylococcus aureus ATCC 29213 assessed as reduction in biofilm viability at 12.5 ug/ml relative to control; type: functional; settings: dose 12.5 µg/ml
# Klebsiella pneumoniae [40] = assay: Antibiofilm activity against 24 hrs preformed biofilm in Klebsiella pneumoniae ATCC 10031 assessed as reduction in biofilm viability at 3.125 ug/ml relative to control; type: functional; settings: dose 3.125 µg/ml
# Pseudomonas aeruginosa [41] = assay: Antibacterial activity against Pseudomonas aeruginosa ATCC 9027 infected in cyclophosphamide immunosuppressed keratitis mouse model assessed as reduction in corneal injury at 10 mg/ml administrated tropically; type: functional, organism-based
compound,measurement,setting,value
CCCCCCCN1c2ccccc2Sc2ccc(OCC(=O)N[C@@H](CCCNC(=N)N)C(=O)N[C@@H](CCCNC(=N)N)C(N)=O)cc21,selectivity ratio,[1],8
same,viability at 6.25 ug/ml,[2],91.2%
same,MIC,Staphylococcus aureus [3],1.56 µg/mL
same,viability at 25 ug/ml,[4],70.8%
same,viability at 3.125 ug/ml,[5],95.4%
same,log(activity),Klebsiella pneumoniae [6],>3
same,Activity,Klebsiella pneumoniae [7],>99.9%
same,Activity,Klebsiella pneumoniae [8],>99.9%
same,selectivity ratio,[9],8
same,selectivity ratio,[10],8
same,selectivity ratio,[11],8
same,MIC,Staphylococcus aureus [12],1.56 µg/mL
same,MIC,Staphylococcus aureus [13],1.56 µg/mL
same,MIC,Staphylococcus aureus [14],1.56 µg/mL
same,MIC,Staphylococcus aureus [15],1.56 µg/mL
same,MIC,Staphylococcus aureus [16],3.12 µg/mL
same,MIC,Escherichia coli [17],3.12 µg/mL
same,MIC,Escherichia coli [18],3.12 µg/mL
same,MIC,Escherichia coli [19],3.12 µg/mL
same,MIC,Escherichia coli [20],3.12 µg/mL
same,MIC,Klebsiella pneumoniae [21],3.12 µg/mL
same,MIC,Klebsiella pneumoniae [22],6.25 µg/mL
same,MIC,Klebsiella pneumoniae [23],3.12 µg/mL
same,MIC,Klebsiella pneumoniae [24],3.12 µg/mL
same,MIC,Klebsiella pneumoniae [25],3.12 µg/mL
same,MIC,Klebsiella pneumoniae [26],3.12 µg/mL
same,MIC,Klebsiella pneumoniae [27],6.25 µg/mL
same,MIC,Pseudomonas aeruginosa [28],6.25 µg/mL
same,MIC,Pseudomonas aeruginosa [29],3.12 µg/mL
same,MIC,Pseudomonas aeruginosa [30],6.25 µg/mL
same,Activity,Staphylococcus aureus [31],Dose-Dependent Effect
same,Activity,Staphylococcus aureus [32],Active
same,inhibition,Klebsiella pneumoniae [33],Dose-Dependent Effect
same,inhibition at 0.78 µg/mL,Klebsiella pneumoniae [34],27.1%
same,inhibition at 3.125 µg/mL,Klebsiella pneumoniae [35],73.8%
same,inhibition at 25 µg/mL,Klebsiella pneumoniae [36],96.6%
same,Activity,Staphylococcus aureus [37],91.66%
same,Activity,Staphylococcus aureus [38],27.75%
same,Activity,Staphylococcus aureus [39],9.12%
same,Activity,Klebsiella pneumoniae [40],34.26%
same,Activity,Pseudomonas aeruginosa [41],inactive
